Measured values reported in ChEMBL document CHEMBL3885881, “DrugMatrix”.
Values joined by “and” are separate entries in the source; they are usually repeats but may differ in a detail not shown here. Equal values may be shown once.

Organism: Rattus norvegicus
Assay: DrugMatrix - Regimen: Daily Repeat
Type: toxicity, organism-based, Sprague-Dawley
Design: regimen Daily Repeat, gender Male, age 6-8 weeks
Settings: in vivo, ip, route intraperitoneal, vehicle 100 % SALINE; for ABSOLUTE BASOPHIL / ABSOLUTE LYMPHOCYTE / ABSOLUTE MONOCYTE / ABSOLUTE SEGMENTED NEUTROPHIL / BASOPHIL / EOSINOPHIL / ERYTHROCYTE COUNT / HEMATOCRIT / HEMOGLOBIN / LEUKOCYTE COUNT / LYMPHOCYTE / MEAN CORPUSCULAR HEMOGLOBIN / MEAN CORPUSCULAR HEMOGLOBIN CONCENTRATION / MEAN CORPUSCULAR VOLUME / MONOCYTE / NEUTROPHIL / NUCLEATED RED BLOOD CELLS / PLATELET COUNT / ABSOLUTE EOSINOPHIL: tissue Blood; for ALANINE AMINOTRANSFERASE / ALBUMIN / ALKALINE PHOSPHATASE / ASPARTATE AMINOTRANSFERASE / BLOOD UREA NITROGEN / CARBON DIOXIDE / CHLORIDE / CHOLESTEROL / CREATINE PHOSPHOKINASE / CREATININE / GLUCOSE / LACTATE DEHYDROGENASE / LIPASE / PHOSPHORUS / POTASSIUM / SODIUM / TOTAL BILIRUBIN / TOTAL PROTEIN / URIC ACID: tissue Plasma
[1] = 0 mg/kg, 72 h, dose level Control, time 3 day
[2] = 0 mg/kg, 120 h, dose level Control, time 5 day
[3] = 0 mg/kg, […], dose level Control, time 7 day
[4] = 16 mg/kg, 72 h, dose level Low, time 3 day
[5] = 16 mg/kg, […], dose level Low, time 7 day

C=CCO [ALLYL ALCOHOL]
ABSOLUTE BASOPHIL [1]: 0 CELLS/uL | ABSOLUTE LYMPHOCYTE [1]: 13949.83 CELLS/uL and 6988.5 CELLS/uL | ABSOLUTE MONOCYTE [1]: 176.17 CELLS/uL and 88 CELLS/uL | ABSOLUTE SEGMENTED NEUTROPHIL [1]: 1407.33 CELLS/uL and 1041.83 CELLS/uL | BASOPHIL [1]: 0% | EOSINOPHIL [1]: 0% and 0.17% | ERYTHROCYTE COUNT [1]: 5.29 x10E6/uL and 5.73 x10E6/uL | HEMATOCRIT [1]: 33.5% and 35.87% | HEMOGLOBIN [1]: 13.47 G/DL and 13.27 G/DL | LEUKOCYTE COUNT [1]: 15.53 x10E3/uL and 8.13 x10E3/uL | LYMPHOCYTE [1]: 89.5% and 85.83% | MEAN CORPUSCULAR HEMOGLOBIN [1]: 25.5 pg and 23.2 pg | MEAN CORPUSCULAR HEMOGLOBIN CONCENTRATION [1]: 40.27 G/DL and 37 G/DL | MEAN CORPUSCULAR VOLUME [1]: 63.33 fL and 62.63 fL | MONOCYTE [1]: 1.17% | NEUTROPHIL [1]: 9.33% and 12.83% | NUCLEATED RED BLOOD CELLS [1]: 0 /100WBC | PLATELET COUNT [1]: 1100 x10E3/uL and 1294.17 x10E3/uL | ALANINE AMINOTRANSFERASE [1]: 41.5 u/L and 49.17 u/L | ALBUMIN [1]: 3.78 G/DL and 4.35 G/DL | ALKALINE PHOSPHATASE [1]: 267.5 u/L and 415.17 u/L | ASPARTATE AMINOTRANSFERASE [1]: 77.67 u/L and 88.5 u/L | BLOOD UREA NITROGEN [1]: 13.67 mg/dL and 14.33 mg/dL | CARBON DIOXIDE [1]: 28.17 mmol/L and 34.83 mmol/L | CHLORIDE [1]: 100.67 MEQ/L and 98.5 MEQ/L | CHOLESTEROL [1]: 70.67 mg/dL and 75.83 mg/dL | CREATINE PHOSPHOKINASE [1]: 341.83 u/L and 271.83 u/L | CREATININE [1]: 0.15 mg/dL and 0.19 mg/dL | GLUCOSE [1]: 169 mg/dL and 148.17 mg/dL | LACTATE DEHYDROGENASE [1]: 138.5 u/L and 166.33 u/L | LIPASE [1]: 10.33 u/L and 9.2 u/L | PHOSPHORUS [1]: 9.6 mg/dL and 10.37 mg/dL | POTASSIUM [1]: 5.69 MEQ/L and 6.16 MEQ/L | SODIUM [1]: 140.88 MEQ/L and 143.75 MEQ/L | TOTAL BILIRUBIN [1]: 0.2 mg/dL and 0.18 mg/dL | TOTAL PROTEIN [1]: 5.95 G/DL and 6.22 G/DL | URIC ACID [1]: 1.18 mg/dL and 0.92 mg/dL | ABSOLUTE BASOPHIL [2]: 0 CELLS/uL | ABSOLUTE EOSINOPHIL [2]: 9.17 CELLS/uL | ABSOLUTE LYMPHOCYTE [2]: 6359.17 CELLS/uL | ABSOLUTE MONOCYTE [2]: 87.33 CELLS/uL | ABSOLUTE SEGMENTED NEUTROPHIL [2]: 894.33 CELLS/uL | BASOPHIL [2]: 0% | EOSINOPHIL [2]: 0.17% | ERYTHROCYTE COUNT [2]: 5.68 x10E6/uL | HEMATOCRIT [2]: 35.05% | HEMOGLOBIN [2]: 13.22 G/DL | LEUKOCYTE COUNT [2]: 7.35 x10E3/uL | LYMPHOCYTE [2]: 86.33% | MEAN CORPUSCULAR HEMOGLOBIN [2]: 23.32 pg | MEAN CORPUSCULAR HEMOGLOBIN CONCENTRATION [2]: 37.72 G/DL | MEAN CORPUSCULAR VOLUME [2]: 61.82 fL | MONOCYTE [2]: 1.17% | NEUTROPHIL [2]: 12.33% | NUCLEATED RED BLOOD CELLS [2]: 0 /100WBC | PLATELET COUNT [2]: 1231 x10E3/uL | ALANINE AMINOTRANSFERASE [2]: 44.5 u/L | ALBUMIN [2]: 4.47 G/DL | ALKALINE PHOSPHATASE [2]: 372.33 u/L | ASPARTATE AMINOTRANSFERASE [2]: 88.67 u/L | BLOOD UREA NITROGEN [2]: 14.67 mg/dL | CARBON DIOXIDE [2]: 35.33 mmol/L | CHLORIDE [2]: 100.6 MEQ/L | CHOLESTEROL [2]: 75 mg/dL | CREATINE PHOSPHOKINASE [2]: 303.83 u/L | CREATININE [2]: 0.16 mg/dL | GLUCOSE [2]: 135.83 mg/dL | LACTATE DEHYDROGENASE [2]: 137.17 u/L | LIPASE [2]: 9.2 u/L | PHOSPHORUS [2]: 10.42 mg/dL | POTASSIUM [2]: 5.9 MEQ/L | SODIUM [2]: 143.7 MEQ/L | TOTAL BILIRUBIN [2]: 0.18 mg/dL | TOTAL PROTEIN [2]: 6.42 G/DL | URIC ACID [2]: 0.78 mg/dL | ABSOLUTE BASOPHIL [3]: 0 CELLS/uL | ABSOLUTE EOSINOPHIL [3]: 12.33 CELLS/uL | ABSOLUTE LYMPHOCYTE [3]: 8726.33 CELLS/uL | ABSOLUTE MONOCYTE [3]: 135.33 CELLS/uL | ABSOLUTE SEGMENTED NEUTROPHIL [3]: 559.33 CELLS/uL | BASOPHIL [3]: 0% | EOSINOPHIL [3]: 0.17% | ERYTHROCYTE COUNT [3]: 5.5 x10E6/uL | HEMATOCRIT [3]: 34.02% | HEMOGLOBIN [3]: 13.12 G/DL | LEUKOCYTE COUNT [3]: 9.43 x10E3/uL | LYMPHOCYTE [3]: 92.67% | MEAN CORPUSCULAR HEMOGLOBIN [3]: 23.85 pg | MEAN CORPUSCULAR HEMOGLOBIN CONCENTRATION [3]: 38.57 G/DL | MEAN CORPUSCULAR VOLUME [3]: 61.83 fL | MONOCYTE [3]: 1.33% | NEUTROPHIL [3]: 5.83% | NUCLEATED RED BLOOD CELLS [3]: 0 /100WBC | PLATELET COUNT [3]: 1308.83 x10E3/uL | ALANINE AMINOTRANSFERASE [3]: 56 u/L | ALBUMIN [3]: 3.7 G/DL | ALKALINE PHOSPHATASE [3]: 281.17 u/L | ASPARTATE AMINOTRANSFERASE [3]: 78.33 u/L | BLOOD UREA NITROGEN [3]: 15 mg/dL | CARBON DIOXIDE [3]: 30.5 mmol/L | CHLORIDE [3]: 103.33 MEQ/L | CHOLESTEROL [3]: 63.83 mg/dL | CREATINE PHOSPHOKINASE [3]: 253.33 u/L | CREATININE [3]: 0.2 mg/dL | GLUCOSE [3]: 151.17 mg/dL | LACTATE DEHYDROGENASE [3]: 89 u/L | LIPASE [3]: 10.33 u/L | PHOSPHORUS [3]: 9.7 mg/dL | POTASSIUM [3]: 5.46 MEQ/L | SODIUM [3]: 146.28 MEQ/L | TOTAL BILIRUBIN [3]: 0.12 mg/dL | TOTAL PROTEIN [3]: 6.07 G/DL | URIC ACID [3]: 0.65 mg/dL | ABSOLUTE BASOPHIL [4]: 0 CELLS/uL | ABSOLUTE EOSINOPHIL [4]: 0 CELLS/uL | ABSOLUTE LYMPHOCYTE [4]: 14529.5 CELLS/uL | ABSOLUTE MONOCYTE [4]: 274 CELLS/uL | ABSOLUTE SEGMENTED NEUTROPHIL [4]: 1013.17 CELLS/uL | BASOPHIL [4]: 0% | EOSINOPHIL [4]: 0% | ERYTHROCYTE COUNT [4]: 5.55 x10E6/uL | HEMATOCRIT [4]: 35.25% | HEMOGLOBIN [4]: 13.98 G/DL | LEUKOCYTE COUNT [4]: 15.82 x10E3/uL | LYMPHOCYTE [4]: 91.67% | MEAN CORPUSCULAR HEMOGLOBIN [4]: 25.2 pg | MEAN CORPUSCULAR HEMOGLOBIN CONCENTRATION [4]: 39.7 G/DL | MEAN CORPUSCULAR VOLUME [4]: 63.53 fL | MONOCYTE [4]: 1.67% | NEUTROPHIL [4]: 6.67% | NUCLEATED RED BLOOD CELLS [4]: 0 /100WBC | PLATELET COUNT [4]: 1167.33 x10E3/uL | ALANINE AMINOTRANSFERASE [4]: 46.17 u/L | ALBUMIN [4]: 3.8 G/DL | ALKALINE PHOSPHATASE [4]: 266.8 u/L | ASPARTATE AMINOTRANSFERASE [4]: 66.67 u/L | BLOOD UREA NITROGEN [4]: 13 mg/dL | CARBON DIOXIDE [4]: 32.5 mmol/L | CHLORIDE [4]: 100.2 MEQ/L | CHOLESTEROL [4]: 68.67 mg/dL | CREATINE PHOSPHOKINASE [4]: 231.17 u/L | CREATININE [4]: 0.44 mg/dL | GLUCOSE [4]: 143.67 mg/dL | LACTATE DEHYDROGENASE [4]: 122.67 u/L | LIPASE [4]: 8 u/L | PHOSPHORUS [4]: 8.67 mg/dL | POTASSIUM [4]: 6.2 MEQ/L | SODIUM [4]: 141.52 MEQ/L | TOTAL BILIRUBIN [4]: 0.18 mg/dL | TOTAL PROTEIN [4]: 5.57 G/DL | URIC ACID [4]: 1.13 mg/dL | ABSOLUTE BASOPHIL [5]: 0 CELLS/uL | ABSOLUTE EOSINOPHIL [5]: 88.33 CELLS/uL | ABSOLUTE LYMPHOCYTE [5]: 10357.5 CELLS/uL | ABSOLUTE MONOCYTE [5]: 213 CELLS/uL | ABSOLUTE SEGMENTED NEUTROPHIL [5]: 574.5 CELLS/uL | BASOPHIL [5]: 0% | EOSINOPHIL [5]: 1% | ERYTHROCYTE COUNT [5]: 5.67 x10E6/uL | HEMATOCRIT [5]: 35.32% | HEMOGLOBIN [5]: 13.55 G/DL | LEUKOCYTE COUNT [5]: 11.23 x10E3/uL | LYMPHOCYTE [5]: 91.5% | MEAN CORPUSCULAR HEMOGLOBIN [5]: 23.88 pg | MEAN CORPUSCULAR HEMOGLOBIN CONCENTRATION [5]: 38.38 G/DL | MEAN CORPUSCULAR VOLUME [5]: 62.35 fL | MONOCYTE [5]: 1.83% | NEUTROPHIL [5]: 5.67% | NUCLEATED RED BLOOD CELLS [5]: 0 /100WBC | PLATELET COUNT [5]: 1370 x10E3/uL
